Results as given in ChEMBL document CHEMBL1127541, “3,4-Dihydro-3-amino-2H-1-benzopyran derivatives as 5-HT1A receptor ligands and potential anxiolytic agents. 1. Synthesis and structure--activity relationship studies” (J Med Chem, 1994).

Tests used:
[1] = target: T1, 5-hydroxytryptamine receptor 1A (Rattus norvegicus, UniProt P19327); assay: Binding affinity against 5-hydroxytryptamine 1A (5-HT1A) receptor in rat hippocampus membranes; type: cell membranes, Membrane
T1 sequence (P19327 whole entry): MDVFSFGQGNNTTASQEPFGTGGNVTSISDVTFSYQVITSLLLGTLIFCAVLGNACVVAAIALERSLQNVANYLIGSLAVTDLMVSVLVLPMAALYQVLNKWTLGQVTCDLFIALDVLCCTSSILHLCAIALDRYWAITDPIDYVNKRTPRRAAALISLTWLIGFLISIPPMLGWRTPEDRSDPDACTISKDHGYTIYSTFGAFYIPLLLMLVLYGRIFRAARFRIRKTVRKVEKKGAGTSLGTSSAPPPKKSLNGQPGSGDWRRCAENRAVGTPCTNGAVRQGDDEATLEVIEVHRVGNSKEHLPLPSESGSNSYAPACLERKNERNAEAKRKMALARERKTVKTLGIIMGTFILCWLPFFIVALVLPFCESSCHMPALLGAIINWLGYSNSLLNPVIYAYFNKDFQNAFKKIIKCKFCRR

[2] = target: 5-hydroxytryptamine receptor 1B (Rattus norvegicus, UniProt P28564); assay: Binding affinity for 5-hydroxytryptamine 1B receptor in rat cortex, striatum and globus pallidus; type: tissue-based
5-hydroxytryptamine receptor 1B, sequence (P28564 whole entry): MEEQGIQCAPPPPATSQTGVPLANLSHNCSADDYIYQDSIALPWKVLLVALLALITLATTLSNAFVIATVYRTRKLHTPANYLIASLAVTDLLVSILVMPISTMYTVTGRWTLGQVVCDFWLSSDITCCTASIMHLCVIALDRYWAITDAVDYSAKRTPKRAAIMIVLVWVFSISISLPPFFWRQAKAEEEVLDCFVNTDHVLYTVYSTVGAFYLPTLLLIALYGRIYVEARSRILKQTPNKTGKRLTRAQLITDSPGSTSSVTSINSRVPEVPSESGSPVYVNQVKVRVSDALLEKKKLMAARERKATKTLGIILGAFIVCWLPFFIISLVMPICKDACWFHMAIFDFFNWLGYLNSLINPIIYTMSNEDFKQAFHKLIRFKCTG

[3] = target: 5-hydroxytryptamine receptor 2A (Bos taurus, UniProt Q75Z89); assay: Binding affinity towards 5-hydroxytryptamine 2 receptor in calf frontal cortex; type: tissue-based
5-hydroxytryptamine receptor 2A, sequence (Q75Z89 whole entry): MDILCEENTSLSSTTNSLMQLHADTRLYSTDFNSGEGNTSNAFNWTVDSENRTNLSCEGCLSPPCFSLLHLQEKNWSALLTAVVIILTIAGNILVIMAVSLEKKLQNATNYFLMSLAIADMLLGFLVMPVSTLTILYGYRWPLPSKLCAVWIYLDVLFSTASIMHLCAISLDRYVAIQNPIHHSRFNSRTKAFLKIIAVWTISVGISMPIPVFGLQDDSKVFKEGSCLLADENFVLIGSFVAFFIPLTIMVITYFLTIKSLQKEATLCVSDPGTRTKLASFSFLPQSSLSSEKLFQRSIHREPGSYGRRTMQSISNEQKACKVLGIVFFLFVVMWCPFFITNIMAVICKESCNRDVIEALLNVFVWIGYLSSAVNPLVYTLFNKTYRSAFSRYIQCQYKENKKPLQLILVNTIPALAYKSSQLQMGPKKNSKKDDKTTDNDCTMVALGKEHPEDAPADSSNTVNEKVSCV

[4] = Inhibitory concentration of compound was tested as agonist activity against forskolin activated adenylate cyclase; type: functional
[5] = target: T2, Alpha-2A adrenergic receptor (Bos taurus, UniProt Q28838); assay: Binding affinity against alpha-2 adrenergic receptor in calf frontal cortex; type: tissue-based
T2 sequence (Q28838 whole entry): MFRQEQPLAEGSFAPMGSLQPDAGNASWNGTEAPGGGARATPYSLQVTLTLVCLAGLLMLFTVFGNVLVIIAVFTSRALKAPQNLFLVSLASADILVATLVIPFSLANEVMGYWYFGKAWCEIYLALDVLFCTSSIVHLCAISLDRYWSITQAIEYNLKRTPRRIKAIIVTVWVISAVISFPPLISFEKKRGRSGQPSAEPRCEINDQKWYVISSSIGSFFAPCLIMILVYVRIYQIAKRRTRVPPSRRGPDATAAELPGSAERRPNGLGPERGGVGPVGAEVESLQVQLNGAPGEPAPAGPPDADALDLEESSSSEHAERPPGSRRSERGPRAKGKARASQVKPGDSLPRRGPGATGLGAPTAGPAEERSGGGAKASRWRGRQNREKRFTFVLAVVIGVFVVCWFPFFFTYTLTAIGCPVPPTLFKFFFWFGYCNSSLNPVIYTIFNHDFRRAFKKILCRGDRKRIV

[6] = target: T3, Alpha-1A adrenergic receptor (Bos taurus, UniProt P18130); assay: Binding affinity against alpha-1 adrenergic receptor in calf frontal cortex; type: tissue-based
T3 sequence (P18130 whole entry): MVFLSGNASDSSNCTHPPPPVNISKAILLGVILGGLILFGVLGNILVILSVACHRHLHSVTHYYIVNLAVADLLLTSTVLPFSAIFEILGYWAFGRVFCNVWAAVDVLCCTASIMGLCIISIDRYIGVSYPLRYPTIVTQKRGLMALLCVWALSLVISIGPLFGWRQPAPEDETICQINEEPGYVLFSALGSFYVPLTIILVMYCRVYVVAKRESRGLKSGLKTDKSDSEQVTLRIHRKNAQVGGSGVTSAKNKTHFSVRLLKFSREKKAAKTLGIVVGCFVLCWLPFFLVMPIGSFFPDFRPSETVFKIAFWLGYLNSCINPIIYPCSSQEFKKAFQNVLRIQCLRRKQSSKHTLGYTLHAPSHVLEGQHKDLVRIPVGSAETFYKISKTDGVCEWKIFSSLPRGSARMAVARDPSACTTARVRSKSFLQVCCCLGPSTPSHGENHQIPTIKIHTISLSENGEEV

D(2) dopamine receptor = D(2) dopamine receptor (Bos taurus, UniProt P20288); assay: Binding affinity against D2 receptor in calf caudate nucleus
D(2) dopamine receptor, sequence (P20288 whole entry): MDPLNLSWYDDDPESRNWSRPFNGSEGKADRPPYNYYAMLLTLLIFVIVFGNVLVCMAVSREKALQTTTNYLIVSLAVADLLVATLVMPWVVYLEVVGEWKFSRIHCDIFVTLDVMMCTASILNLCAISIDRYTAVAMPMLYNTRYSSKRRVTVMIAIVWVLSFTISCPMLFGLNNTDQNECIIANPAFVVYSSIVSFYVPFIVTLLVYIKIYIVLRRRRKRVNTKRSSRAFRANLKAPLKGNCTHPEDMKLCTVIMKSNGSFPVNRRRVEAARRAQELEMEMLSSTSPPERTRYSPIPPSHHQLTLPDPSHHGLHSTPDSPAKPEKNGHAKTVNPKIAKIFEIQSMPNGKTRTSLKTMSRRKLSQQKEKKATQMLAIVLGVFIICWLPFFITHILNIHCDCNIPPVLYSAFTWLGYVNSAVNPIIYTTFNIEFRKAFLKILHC

D(1A) dopamine receptor = D(1A) dopamine receptor (Bos taurus, UniProt Q95136); assay: Binding affinity towards dopamine receptor D1 in calf striatum; type: tissue-based
D(1A) dopamine receptor, sequence (Q95136 whole entry): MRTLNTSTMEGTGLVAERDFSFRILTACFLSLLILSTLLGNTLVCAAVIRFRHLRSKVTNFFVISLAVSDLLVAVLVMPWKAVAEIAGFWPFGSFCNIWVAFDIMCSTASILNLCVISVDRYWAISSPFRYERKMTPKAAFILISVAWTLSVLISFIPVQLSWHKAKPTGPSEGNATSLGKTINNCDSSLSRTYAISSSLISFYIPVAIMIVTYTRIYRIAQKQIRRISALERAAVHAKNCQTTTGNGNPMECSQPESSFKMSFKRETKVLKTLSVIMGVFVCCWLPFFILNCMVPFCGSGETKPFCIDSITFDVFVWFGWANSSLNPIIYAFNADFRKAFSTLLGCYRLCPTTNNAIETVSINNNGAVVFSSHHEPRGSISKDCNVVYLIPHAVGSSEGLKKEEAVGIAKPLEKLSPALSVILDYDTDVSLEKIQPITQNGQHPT

Mus musculus [7] = assay: The in vivo compartmental activity was evaluated as minimum significant active dose measured by Forepaw treading test; type: functional
Mus musculus [8] = assay: The in vivo compartmental activity was evaluated as minimum significant active dose measured by Drug discrimination test; type: functional
Mus musculus [9] = species on record: Mus musculus; assay: Inhibitory concentration of compound was tested as agonist activity against DRN firing in the dorsal raphe nucleus; type: functional, organism-based
Mus musculus [10] = assay: The in vivo compartmental activity was evaluated as minimum significant active dose measured by lower lip retraction test; type: functional
Mus musculus [11] = assay: (§1) The in vivo compartmental activity was evaluated as minimum significant active dose measured by punishment test; type: functional
Mus musculus [12] = assay: The in vivo compartmental activity was evaluated as minimum significant active dose measured by Dark/light box test; type: functional
Mus musculus [13] = assay: as §1; type: ADME, organism-based
[14] = Inhibitory concentration of compound was tested as agonist activity against DRN serotonergic neurons firing in the dorsal raphe nucleus; type: functional, tissue-based, Rattus norvegicus

| SMILES | IC50 [1] [µM] | IC50 [2] [µM] | IC50 [3] [µM] | IC50 [4] [µM] | IC50 [5] [µM] | IC50 [6] [µM] | IC50 (D(2) dopamine receptor) [µM] | IC50 (D(1A) dopamine receptor) [µM] | FPT msad (Mus musculus [7]) [mg/kg] | DDT msad (Mus musculus [8]) [mg/kg] | IC50 (Mus musculus [9]) [µM] | LLR msad (Mus musculus [10]) [mg/kg] | Punishment test msad (Mus musculus [11]) [mg/kg] | DLBT (Mus musculus [12]) [mg/kg] | Punishment test msad (Mus musculus [13]) [mg/kg] | IC50 [14] [µM] |
| --- | --- | --- | --- | --- | --- | --- | --- | --- | --- | --- | --- | --- | --- | --- | --- | --- |
| CCCN(CCCCN1C(=O)CC2(CCCC2)CC1=O)C1COc2cccc(OC)c2C1.O=C(O)C(=O)O (single isomer, unassigned; (+)) | 0.0003 | 10 | 3 | 0.0102 | 0.02 | 40 | 3 | 40 | 8 | 0.1 | ~0.006 | 4 | 0.03 | 1 |  |  |
| CCCN(CCCCN1C(=O)CC2(CCCC2)CC1=O)C1COc2cccc(OC)c2C1.O=C(O)C(=O)O (stereo in doubt; 9g) | 0.0002 | 5 | 1 | 0.0263 | 10 | 6 | 0.01 | 40 |  | 0.3 |  |  | 0.06 | 2 |  |  |
| CCCN(CCCCn1c(=O)oc2cccnc21)C1COc2cccc(OC)c2C1 (configuration not stated) | 0.005 | 1 | 6 |  | 5 | 3 | 0.1 | 30 |  |  |  |  |  |  |  |  |
| CCCN(CCC)C1COc2ccccc2C1 (configuration not stated) | 0.4 | > 1000 | 80 |  | 20 | > 1000 | 0.06 | > 1000 |  |  |  |  |  |  |  |  |
| CCCN(CCN1C(=O)c2ccccc2C1=O)C1COc2cccc(OC)c2C1 (configuration not stated) | 0.8 | > 1000 | > 100 |  | > 1000 | > 1000 | 10 | > 1000 |  |  |  |  |  |  |  |  |
| CCCN(CCCN1C(=O)c2ccccc2C1=O)C1COc2cccc(OC)c2C1 (configuration not stated) | 0.1 | 3 | 8 |  | 1 | 4 | 0.08 | 40 |  |  |  |  |  |  |  |  |
| CCCN(CCCN1C(=O)CC2(CCCC2)CC1=O)C1COc2cccc(OC)c2C1 (configuration not stated) | 0.001 | 20 | 0.8 |  | 6 | 8 | 0.6 | 10 |  |  |  |  |  |  |  |  |
| CCCN(CCCCN1C(=O)c2ccccc2S1(=O)=O)C1COc2cccc(OC)c2C1 (configuration not stated) | 0.001 | 1 | 10 |  | 40 | 1 | 0.09 | 50 |  |  |  |  |  |  |  |  |
| CCCN(CCC)C1COc2cccc(OC)c2C1 (stereo in doubt; (-)-4) | 0.001 | 1 | 4 |  | 0.78 | 3.5 | 0.21 | > 1000 |  |  |  |  |  |  |  |  |
| CCCN(CCNS(=O)(=O)c1ccc(C)cc1)C1COc2cccc(OC)c2C1 (single isomer, unassigned; (+)) | 0.008 | > 1000 | > 1000 |  | 50 | 100 | 0.5 | 100 |  |  |  |  |  |  |  |  |
| CCCN(CCCCN1C(=O)CC2(CCCC2)CC1=O)C1COc2cccc(OC)c2C1.O=C(O)C(=O)O (single isomer, unassigned; (-)) | 0.002 | 6 | 5 | 0.248 | 0.02 | 20 | 0.01 | 20 | 32 | 3 | ~0.13 | 8 | 1 | >2 |  |  |
| CCCN(CCCCN1C(=O)C2CCCC2C1=O)C1COc2cccc(OC)c2C1 (single isomer, unassigned; (+)) | 0.008 | 10 | 10 |  | 5 | 3 | 0.1 | 50 |  |  |  |  |  |  |  |  |
| CCCN(CCC)C1CCc2cccc(O)c2C1 (configuration not stated) [8-OH-DPAT] |  |  | 49 | ~0.008 | 1 | 30 | 0.8 | > 1000 |  |  |  |  |  |  | 0.1 | ~0.005 |
| CCCN(CCCCNS(=O)(=O)c1ccc(C)cc1)C1COc2cccc(OC)c2C1 (single isomer, unassigned; (-)) | 0.02 | 20 | 5 |  | 2 | 7 | 0.06 | 20 |  |  |  |  |  |  |  |  |
